Results as given in paper PMC11087509, “Multimodal binding and inhibition of bacterial ribosomes by the antimicrobial peptides Api137 and Api88” (Nature Communications, 2024).
Where a SMILES comes first, the peptide text is derived from it. The star is where a group is joined. Orn(α-tetramethylguanidino) = CN(C)C(=N[C@@H](CCCN)C(=O)*)N(C)C

What was measured:
50S subunit = molecular target: T1, 50S subunit (Escherichia coli, UniProt P0A7M6+P0ADZ0+P60723+P61175); test: Cryo-EM of 50S•Api137 and 50S•Api88 complexes; assay type: binding, E. coli; details: 50S 0.3 µM, peptide 30 µM, Tico buffer pH 7.6, room temperature, 20 min
T1 construct: Ribosomes were isolated from the E. coli strain MRE600; made in house; native subunits isolated in house
Description: Several hundred grams of log-phase cells were commercially produced and purchased. Cells were washed in buffer A (20 mmol/L HEPES (pH 7.6), 6 mmol/L MgAc2, 30 mmol/L AcOK, 4 mmol/L ß-mercaptoethanol) and lysed in an M-110L microfluidizer (Microfluidics) at 17,000 psi and 4 °C. Cell debris was removed by low-speed centrifugation (15,000× g, 10 min, 4 °C) to obtain S30 lysate. Crude ribosomes, mostly containing 70S ribosomes, were pelleted by ultracentrifugation (40,000× g, 17 h, 4 °C) and resuspended in buffer A. The 70S ribosomes were separated from 30S and 50S subunits by zonal ultracentrifugation (Beckman Ti-15; 6–40% sucrose gradient in buffer A, 44,000× g, 16 h, 4 °C). The 70S-containing fractions were collected, and the ribosomes were sedimented by ultracentrifugation (40,000× g, 17 h, 4 °C). […]
Purified 50S subunits (0.3 µM) were incubated with Api137 or Api88 (30 µM) in Tico buffer (20 mM HEPES/KOH, pH 7.6, 30 mM AcOK, 6 mM Mg(AcO)2, 4 mM 2-mercaptoethanol) at room temperature for 20 min. The complexes were applied to glow-discharged (Pelco Easy Glow) holey carbon grids (400 Mesh Cu R2/2, Quantifoil MicroTools GmbH) and plunge-frozen in liquid ethane using a Vitrobot Mark IV (Thermo Fisher Scientific) device. […]

recombinant TF = details: fluorescence polarization; cited from earlier work
Description: Binding sites two and three are close to uL23 and uL29, which is also supported by Api88(Y7B) cross-links. These ribosomal proteins are located adjacent to the PET exit and are binding hubs for the molecular chaperone trigger factor (TF)[34] and the signal recognition particle (SRP), a universally conserved and essential cellular machinery that directs proteins destined for membrane integration to the plasma membrane[35],[36]. This co-translational targeting is initiated by a hydrophobic signal sequence in the nascent protein chain recognized by SRP as it exits the PET. It is appealing to hypo ...

CC[C@H](C)[C@H](NC(=O)[C@H](Cc1ccc(O)cc1)NC(=O)[C@@H](NC(=O)[C@@H]1CCCN1C(=O)[C@H](CCCNC(=N)N)NC(=O)[C@H](CC(N)=O)NC(=O)[C@H](CC(N)=O)NC(=O)[C@H](CCCN)N=C(N(C)C)N(C)C)C(C)C)C(=O)N1CCC[C@H]1C(=O)N[C@@H](CCCNC(=N)N)C(=O)N1CCC[C@H]1C(=O)N[C@@H](CCCNC(=N)N)C(=O)N1CCC[C@H]1C(=O)N1CCC[C@H]1C(=O)N[C@@H](Cc1c[nH]cn1)C(=O)N1CCC[C@H]1C(=O)N[C@@H](CCCNC(=N)N)C(=O)N[C@@H](CC(C)C)C(=O)O [Api137] ({Orn(α-tetramethylguanidino)}-NNRPVYIPRPRPPHPRL-OH)
binding sites identified on 50S (50S subunit): another apidaecin molecule in an unexpected location near the exit of the PET | Kd (recombinant TF): > 100 µM
